How the values were obtained:
[1] = system: withdrawal reflex of the rat tail (tail flick) in response to a radiant heat beam; test: Low-intensity tail flick test (rat); format: in vivo; conditions: po, peroral, read-out: Low intensity tail flick, rat, peroral, % MPE (dose [mg/kg])
Method: (§1) [formula] increases dose dependently. Calculations of EC50 and IC50 values are carried out with the aid of ‘Prism v4.0’ software (GraphPad Software™) Method II. Low-Intensity Tail Flick Test (Rat)
In the low-intensity tail flick test, the determination of the antinociceptive effect of the compounds according to the invention towards an acute noxious thermal stimulus is carried out by measuring the withdrawal reflex of the rat tail (tail flick) in response to a radiant heat beam (analgesia meter; model 2011 of the company Rhema Labortechnik, Hofheim, Germany) according to the method described by D'Annour and Smith (J. Pharm. Exp. Ther. 72, 74 79 (1941). To this end, the rats were placed in a plexiglas restrainer, and a low-intensity radiant heat beam (48° C.) was focused onto the dorsal surface of the tail root. The stimulus intensity was adjusted to result in a mean pre-drug control withdrawal latency of about 7 s, thus also allowing a supraspinal modulation of the spinally mediated acute nociceptive reflex. A cutoff time of 30 s was applied to avoid tissue damage. Male Sprague-Dawley rats (Janvier, Le Genest St. Isle, Frankreich) with weights of 200-250 g were used. 10 rats were used per group. Before administration of a compound according to the invention, the animals were pre-tested twice in the course of five minutes and the mean of these measurements was calculated as the pre-test mean. The antinociceptive effect was determined at 20, 40 and 60 min after peroral compound administration. The antinociceptive effect was calculated based on the increase in the tail withdrawal latency according to the following formula and is expressed as percentage of the maximum possible effect (MPE [%]): MPE=[(T1−T0)/(T2−T0)]*100
In this, T0 is the control latency time before and T1 the latency time after administration of the compound, T2 is the cutoff time and MPE is the maximum possible effect. Employing variant analysis (repeated measures ANOVA) allowed testing of statistically significant differences between the compounds according to the invention and the vehicle group. The significance level was set to p≦0.05. To determine the dose dependency, the particular compound according to the invention was administered in 3-5 logarithmically increasing doses, including a threshold dose and a maximum effective dose, and the ED50 values were determined with the aid of regression analysis. The ED50 calculation was performed at the time of maximum efficacy (usually 20 min after administration of the compounds).

KCNQ2/3 channels = biological target: T1, KCNQ2/3 channels (Homo sapiens, UniProt O43525+O43526); test: Fluorescence assay using a voltage sensitive dye (fluorimetry); format: cell-based; conditions: CHO-K1 cells expressing KCNQ2/3 channels; for Emax: relative to retigabine = 100%, read-out: Fluorimetry % efficacy (retigabine = 100%)
T1 construct: expressed in transfected cells
Method: Method I. Fluorescence Assay Using a Voltage Sensitive Dye (Fluorimetry)
[…] CHO-K1 cells expressing KCNQ2/3 channels are cultivated adherently at 37° C., 5% CO2 and 95% humidity in cell culture bottles (e.g. 80 cm^2 TC flasks, Nunc) with DMEM-high glucose (Sigma Aldrich, D7777) including 10% FCS (PAN Biotech, e.g. 3302-P270521) or alternatively MEM Alpha Medium (1×, liquid, Invitrogen, #22571), 10% fetal calf serum (FCS) (Invitrogen, #10270-106, heat-inactivated) and the necessary selection antibiotics.
Before being sown out for the measurements, the cells are washed with 1×DPBS buffer Ca^2+/Mg^2+-free (e.g. Invitrogen, #14190-094) and detached from the bottom of the culture vessel by using Accutase (PAA Laboratories, #L11-007) (incubation with Accutase for 15 min at 37° C.). The cell number is determined using a CASY™ cell counter (TCC, Schärfe System). Depending on the optimal density for each individual cell line, 20,000-30,000 cells/well/100 μl are seeded onto 96-well Corning™ CellBIND™ assay plates (Flat Clear Bottom Black Polystyrene Microplates, #3340). Freshly seeded cells are then left to settle for one hour at room temperature, followed by incubation for 24 hours at 37° C., 5% CO2 and 95% humidity.
The voltage-sensitive fluorescent dye from the Membrane Potential Assay Kit (Red™ Bulk format part R8123 for FLIPR, MDS Analytical Technologies™) is prepared by dissolving the contents of one vessel Membrane Potential Assay Kit Red Component A in 200 ml of extracellular buffer (ES buffer, 120 mM NaCl, 1 mM KCl, 10 mM HEPES, 2 mM CaCl2, 2 mM MgCl2, 10 mM glucose; pH 7.4). After removal of the nutrient medium, the cells are washed once with 200 μl of ES buffer, then loaded for 45 min at room temperature in 100 μl of dye solution in the dark.
Fluorescence measurements are carried out in a BMG Labtech FLUOstar™, BMG Labtech NOVOstar™ or BMG Labtech POLARstar™ instrument (525 nm excitation, 560 nm emission, Bottom Read mode). After incubation with the dye, 50 μl of the test substances in the desired concentrations, or 50 μl of ES buffer for control purposes, are applied to the wells of the assay plate and incubated for 30 min at room temperature while being shielded from light. The fluorescence intensity of the dye is then measured for 5 min and the fluorescence value F1 of each well is thus determined at a given, constant time. 15 μl of a KCl solution are then added to each well (final concentration of potassium ions 92 mM). The change in fluorescence intensity is subsequently monitored until all the relevant values have been obtained (mainly 5-30 min). At a given time post KCl application, a fluorescence value F2 is determined, in this case at the time of the fluorescence peak.
For calculation, the fluorescence intensity F2 is corrected for the fluorescence intensity F1, and the activity (ΔF/F) of the target compound on the potassium channel is determined as follows:
In order to determine whether a substance has agonistic activity,
[formula] can be related to
[formula] of control wells.
[formula] is determined by adding to the well only the buffer solution instead of the test substance, determining the value F1K of the fluorescence intensity, adding the potassium ions as described above, and measuring a value F2K of the fluorescence intensity. F2K and F1K are then calculated as follows: […]
A substance has an agonistic activity on the potassium channel if
[formula] is greater than
Independently of the comparison of
[formula] it is possible to conclude that a target compound has agonistic activity if
as §1

## CCCc1nc2cc(C(F)(F)F)ccc2c(C)c1C(=O)NCc1ccc(F)cc1 [Example 3, N-[(4-fluorophenyl)-methyl]-4-methyl-2-propyl-7-(trifluoromethyl)-quinoline-3-carboxylic acid amide]
[1]
  inhibition in vivo at 10 mg/kg: 51%
KCNQ2/3 channels
  EC50: 0.043 µM
  Emax: 126%

## CCc1nc2cc(C(F)(F)F)ccc2c(C)c1C(=O)NCc1cccc(F)c1 [Example 6, 2-Ethyl-N-[(3-fluorophenyl)-methyl]-4-methyl-7-(trifluoromethyl)-quinoline-3-carboxylic acid amide]
[1]
  inhibition in vivo at 6.81 mg/kg: 51%
KCNQ2/3 channels
  EC50: 0.178 µM
  Emax: 177%

## Cc1c(C(=O)NCc2ccc(F)cc2)c(C(C)C)nc2cc(C(F)(F)F)ccc12 [Example 7, N-[(4-Fluorophenyl)-methyl]-2-isopropyl-4-methyl-7-(trifluoromethyl)-quinoline-3-carboxylic acid amide]
[1]
  inhibition in vivo at 10 mg/kg: 54%
KCNQ2/3 channels
  EC50: 0.065 µM
  Emax: 181%

## Cc1c(C(=O)NCc2cccc(F)c2)c(C(C)C)nc2cc(C(F)(F)F)ccc12 [Example 8, N-[(3-Fluorophenyl)-methyl]-2-isopropyl-4-methyl-7-(trifluoromethyl)-quinoline-3-carboxylic acid amide]
[1]
  inhibition in vivo at 10 mg/kg: 65%
KCNQ2/3 channels
  EC50: 0.053 µM
  Emax: 185%

## Cc1c(C(=O)NCc2ccc(F)cc2)c(C2CC2)nc2cc(C(F)(F)F)ccc12 [Example 9, 2-Cyclopropyl-N-[(4-fluorophenyl)-methyl]-4-methyl-7-(trifluoromethyl)-quinoline-3-carboxylic acid amide]
[1]
  inhibition in vivo at 10 mg/kg: 15%
KCNQ2/3 channels
  EC50: 0.126 µM
  Emax: 161%

## Cc1c(C(=O)NCc2cccc(F)c2)c(C2CC2)nc2cc(C(F)(F)F)ccc12 [Example 10, 2-Cyclopropyl-N-[(3-fluorophenyl)-methyl]-4-methyl-7-(trifluoromethyl)-quinoline-3-carboxylic acid amide]
[1]
  inhibition in vivo at 6.81 mg/kg: 43%
KCNQ2/3 channels
  EC50: 0.091 µM
  Emax: 182%

## COCc1nc2cc(C(F)(F)F)ccc2c(C)c1C(=O)NCc1cccc(F)c1 [Example 15, N-[(3-fluorophenyl)-methyl]-2-(methoxymethyl)-4-methyl-7-(trifluoromethyl)-quinoline-3-carboxylic acid amide]
[1]
  inhibition in vivo at 10 mg/kg: 9%
KCNQ2/3 channels
  EC50: 0.635 µM
  Emax: 117%

## COCc1nc2cc(C(F)(F)F)ccc2c(C)c1C(=O)NCc1ccc(F)cc1 [Example 16, N-[(4-Fluorophenyl)-methyl]-2-(methoxymethyl)-4-methyl-7-(trifluoromethyl)-quinoline-3-carboxylic acid amide]
[1]
  inhibition in vivo at 10 mg/kg: 21%
KCNQ2/3 channels
  EC50: 0.393 µM
  Emax: 96%

## Cc1c(C(=O)NCc2ccc(F)cc2)c(C(C)C)nc2cc(C#N)ccc12 [Example 40, 7-Cyano-N-[(4-fluorophenyl)-methyl]-2-isopropyl-4-methyl-quinoline-3-carboxylic acid amide]
KCNQ2/3 channels
  EC50: 0.19 µM
  Emax: 163%

— patent publication US8445512B2, “Substituted quinoline-3-carboxamides as KCNQ2/3 modulators” (Gruenenthal GmbH, priority 2010, dated 2013)
